{"source": "patent US10183015B2", "about": "“Heterocyclic compounds and methods of use” (Medivation Technologies LLC, priority 2015, dated 2019)", "key": {"[1]": {"assay": "PK parameters for representative compounds (i.v. and p.o.), Table 4", "conditions": "in vivo; for half-life: read-out: Terminal t1/2 (converted)"}, "[2]": {"tested_on": "SREBP2", "assay": "SREBP2 cleavage in HepG2 cells (Western blot)", "type": "cell-based", "conditions": "20 μM, 1 day, DMEM without FBS", "procedure": "(§1) Cancer cells such as HepG2 cells depend on SREBP activation and de novo lipogenesis to survive, particularly in low serum or serum-free conditions. Using this model, compounds were screened over 24 hours for the ability to block cleavage of SREBP to its active form and over 72 hours for an effect on cell viability under serum-free conditions.\nAverage SREBP2 cleavage in HepG2 cells was measured in the presence of compounds disclosed in Table 1. HepG2 cells were seeded at 500,000 cells per well in 6-well plates in DMEM supplemented with 10% FBS. After 2 days, cells were treated with compounds (20 μM) for 1 day in DMEM without FBS. Western blots were normalized with respect to actin."}, "[3]": {"tested_on": "HepG2 cells", "assay": "HepG2 cell viability under serum-free conditions (MTS)", "type": "cell-based", "conditions": "Homo sapiens, HepG2, 72 h, 3 days, DMEM without FBS, read-out: Average Viability (% Inhibition, n = 3)", "procedure": "as §1\nFor viability measurements, HepG2 cells were seeded at 5,000 cells per well in 96-well plates in DMEM supplemented with 10% FBS. After 1 day in culture, cells were treated with compounds (20 μM & 5 μM) for 3 days in DMEM without FBS. Viability was measured by MTS […]. […]"}}, "note": "Like-named read-outs stand apart in the source and are kept apart here.", "data": [{"molecule": "CC(C)(C)c1cc(-c2nc(-c3ccc(NS(=O)(=O)C(F)(F)F)cc3Cl)cs2)ccn1", "note": "[Compound 5, N-(4-(2-(2-tert-butylpyridin-4-yl)thiazol-4-yl)-3-chlorophenyl)-1,1,1-trifluoromethanesulfonamide]", "values": [{"measurement": "AUC(0-t)", "setting": "[1]; iv, i.v. @ 2 mg/kg", "result": 41, "unit": "µM·h"}, {"measurement": "Cmax", "setting": "[1]; iv, i.v. @ 2 mg/kg", "result": 10.2, "unit": "µM"}, {"measurement": "Vd", "setting": "[1]; iv, i.v. @ 2 mg/kg", "result": 0.345, "unit": "L/kg"}, {"measurement": "clearance", "setting": "[1]; iv, i.v. @ 2 mg/kg", "result": 1.58, "unit": "mL/min/kg"}, {"measurement": "half-life", "setting": "[1]; iv, i.v. @ 2 mg/kg", "result": 2.51, "unit": "h"}, {"measurement": "AUC(0-t)", "setting": "[1]; po, p.o. @ 10 mg/kg", "result": 302, "unit": "µM·h"}, {"measurement": "Cmax", "setting": "[1]; po, p.o. @ 10 mg/kg", "result": 20.3, "unit": "µM"}, {"measurement": "Tmax", "setting": "[1]; po, p.o. @ 10 mg/kg", "result": 1, "unit": "h"}, {"measurement": "bioavailability", "setting": "[1]; po, p.o. @ 10 mg/kg vs i.v. @ 2 mg/kg", "result": 149, "unit": "%"}, {"measurement": "half-life", "setting": "[1]; po, p.o. @ 10 mg/kg", "result": 6.96, "unit": "h"}, {"measurement": "Average SREBP2 cleavage (% Inhibition, n = 3)", "setting": "[2]", "result": 81.7, "unit": "%"}, {"measurement": "cytotoxicity at 20 µM", "setting": "[3]; 20 μM", "result": 99.2, "unit": "%"}]}, {"molecule": "O=S(=O)(Nc1ccc(-c2csc(-c3cccc(CO)c3)n2)c(Cl)c1)C(F)(F)F", "note": "[Compound 83, N-(3-chloro-4-{2-[3-(hydroxymethyl)phenyl]-1,3-thiazol-4-yl}phenyl)-1,1,1-trifluoromethanesulfonamide]", "values": [{"measurement": "cytotoxicity at 5 µM", "setting": "[3]", "result": 0, "unit": "%"}]}, {"molecule": "O=S(=O)(Nc1ccc(-c2csc(-c3ccnc4[nH]ccc34)n2)c(Cl)c1)C(F)(F)F", "note": "[Compound 87, N-[3-chloro-4-(2-{1H-pyrrolo[2,3-b]pyridin-4-yl}-1,3-thiazol-4-yl)phenyl]-1,1,1-trifluoromethanesulfonamide]", "values": [{"measurement": "cytotoxicity at 5 µM", "setting": "[3]", "result": 9, "unit": "%"}]}, {"molecule": "O=S(=O)(Nc1ccc(-c2csc(-c3ccc(C(F)(F)F)c(OCc4ccccc4)c3)n2)c(Cl)c1)C(F)(F)F", "note": "[Compound 73, N-(4-{2-[3-(benzyloxy)-4-(trifluoromethyl)phenyl]-1,3-thiazol-4-yl}-3-chlorophenyl)-1,1,1-trifluoromethanesulfonamide]", "values": [{"measurement": "cytotoxicity at 5 µM", "setting": "[3]", "result": 99, "unit": "%"}]}, {"molecule": "O=S(=O)(Nc1ccc(-c2csc(-c3ccc4c(c3)CCO4)n2)c(Cl)c1)C(F)(F)F", "note": "[Compound 82, N-{3-chloro-4-[2-(2,3-dihydro-1-benzofuran-5-yl)-1,3-thiazol-4-yl]phenyl}-1,1,1-trifluoromethanesulfonamide]", "values": [{"measurement": "cytotoxicity at 5 µM", "setting": "[3]", "result": 82, "unit": "%"}]}, {"molecule": "O=S(=O)(Nc1ccc(-c2csc(-c3cncc4ccccc34)n2)c(Cl)c1)C(F)(F)F", "note": "[Compound 75, N-{3-chloro-4-[2-(isoquinolin-4-yl)-1,3-thiazol-4-yl]phenyl}-1,1,1-trifluoromethanesulfonamide]", "values": [{"measurement": "cytotoxicity at 5 µM", "setting": "[3]", "result": 88, "unit": "%"}]}]}
